Data from PubChem BioAssay AID330 (DTP/NCI, 2004).
“And” between values parts separate entries of the source, which are not always exact repeats. Identical values can stand only once. Toxic doses and inconclusive results are not listed.

System: P388 leukemia ip, CD2F1 mice, survival T/C
Assay: NCI In Vivo Anticancer Drug Screen. Data for tumor model P388 Leukemia (intraperitoneal) in CD2F1 (CDF1) mice
Details: endpoint: median survival time, higher = longer survival
Outline: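 Mice carrying the transplanted tumor received test compound or vehicle. Survival was recorded in each group, and the value is the treated-group measurement divided by that of the vehicle-treated control group.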

[1] = dose: 50.0 mg/kg/injection, schedule: Q01DX005 (ip), vehicle: Klucel (hydroxypropylcellulose) (HPC)
[2] = dose: 100.0 mg/kg/injection, schedule: Q01DX005 (ip), vehicle: Klucel (hydroxypropylcellulose) (HPC)
[3] = dose: 200.0 mg/kg/injection, schedule: Q01DX005 (ip), vehicle: Klucel (hydroxypropylcellulose) (HPC)
[4] = dose: 50.0 mg/kg/injection, schedule: Q01DX005 (ip), vehicle: saline with Tween-80
[5] = dose: 100.0 mg/kg/injection, schedule: Q01DX005 (ip), vehicle: saline with Tween-80
[6] = dose: 200.0 mg/kg/injection, schedule: Q01DX005 (ip), vehicle: saline with Tween-80
[7] = dose: 50.0 mg/kg/injection, schedule: Q01DX009 (ip), vehicle: saline with Tween-80
[8] = dose: 100.0 mg/kg/injection, schedule: Q01DX009 (ip), vehicle: saline with Tween-80
[9] = dose: 200.0 mg/kg/injection, schedule: Q01DX009 (ip), vehicle: saline with Tween-80
[10] = dose: 50.0 mg/kg/injection, schedule: Q01DX009 (ip), vehicle: saline
[11] = dose: 100.0 mg/kg/injection, schedule: Q01DX009 (ip), vehicle: saline
[12] = dose: 200.0 mg/kg/injection, schedule: Q01DX009 (ip), vehicle: saline
[13] = dose: 15.0 mg/kg/injection, schedule: Q01DX005 (ip), vehicle: saline
[14] = dose: 60.0 mg/kg/injection, schedule: Q01DX005 (ip), vehicle: saline
[15] = dose: 120.0 mg/kg/injection, schedule: Q01DX005 (ip), vehicle: saline
[16] = dose: 25.0 mg/kg/injection, schedule: Q01DX009 (ip), vehicle: saline

Cc1ccccc1N=C(c1ccccc1)C1C(=O)c2ccccc2C1=O
T/C (dose: 50.0 mg/kg/injection, schedule: Q01DX005 (ip), vehicle: DMSO): 100 % of control
T/C [1]: 103 % of control
T/C (dose: 100.0 mg/kg/injection, schedule: Q01DX005 (ip), vehicle: DMSO): 98 % of control
T/C [2]: 106 % of control
T/C (dose: 200.0 mg/kg/injection, schedule: Q01DX005 (ip), vehicle: DMSO): 97 % of control
T/C [3]: 103 % of control
T/C (dose: 400.0 mg/kg/injection, schedule: Q01DX005 (ip), vehicle: DMSO): 101 % of control
T/C (dose: 800.0 mg/kg/injection, schedule: Q01DX005 (ip), vehicle: DMSO): 97 % of control

O=C1c2ccccc2C(O)(c2ccc(Cl)cc2)c2ccc(Cl)cc21 (stereo not given)
T/C [4]: 95 % of control
T/C [5]: 98 % of control
T/C [6]: 101 % of control

Nc1ccncc1C(=O)O
T/C [7]: 99 % of control
T/C [8]: 99 % of control
T/C [9]: 96 % of control

FC(F)(F)C1=C(C(F)(F)F)SP23(OCCC(CO2)O3)S1 (stereo not given)
T/C (dose: 12.5 mg/kg/injection, schedule: Q01DX009 (ip), vehicle: Klucel (hydroxypropylcellulose) (HPC)): 107 % of control and 108 % of control
T/C (dose: 25.0 mg/kg/injection, schedule: Q01DX009 (ip), vehicle: Klucel (hydroxypropylcellulose) (HPC)): 106 % of control and 114 % of control
T/C (dose: 50.0 mg/kg/injection, schedule: Q01DX009 (ip), vehicle: Klucel (hydroxypropylcellulose) (HPC)): 109 % of control and 114 % of control
T/C (dose: 100.0 mg/kg/injection, schedule: Q01DX009 (ip), vehicle: Klucel (hydroxypropylcellulose) (HPC)): 107 % of control and 116 % of control

OC1CCC2CC2C1 (stereo not given)
T/C [10]: 108 % of control
T/C [11]: 102 % of control
T/C [12]: 108 % of control

COc1cc(N=Nc2ccccc2)cc(/C=N\NC(=S)Nc2ccccc2)c1O
T/C [4]: 91 % of control
T/C [5]: 94 % of control

COc1ccc(CN(CCc2ccc(O)cc2)C(=O)C(F)(F)F)cc1O
T/C (dose: 6.25 mg/kg/injection, schedule: Q01DX009 (ip), vehicle: saline with Tween-80): 99 % of control
T/C (dose: 12.5 mg/kg/injection, schedule: Q01DX009 (ip), vehicle: saline with Tween-80): 110 % of control
T/C (dose: 25.0 mg/kg/injection, schedule: Q01DX009 (ip), vehicle: saline with Tween-80): 107 % of control
T/C [7]: 100 % of control

CCC(=O)Nc1cc(C(F)(F)F)cc2[nH]c(C)nc12
T/C [4]: 97 % of control
T/C [5]: 99 % of control
T/C [6]: 100 % of control

CC1(C(=O)OCc2ccccc2)NCCS1 (stereo not given)
T/C [7]: 100 % of control
T/C [8]: 96 % of control
T/C [9]: 109 % of control

Cc1sc2ccc3ccccc3c2[n+]1C
T/C [13]: 100 % of control and 106 % of control and 95 % of control
T/C (dose: 30.0 mg/kg/injection, schedule: Q01DX005 (ip), vehicle: saline): 104 % of control and 108 % of control and 118 % of control
T/C [14]: 116 % of control
T/C [15]: 91 % of control and 114 % of control

O=S(Cl)C(Cl)=C(Cl)Cl (stereo not given)
T/C [1]: 106 % of control
T/C [2]: 104 % of control
T/C [3]: 103 % of control

N=C(N)c1ccc(OCCCOc2ccc(C(=N)N)cc2Br)c(Br)c1
T/C (dose: 6.25 mg/kg/injection, schedule: Q04DX003 (ip), vehicle: saline): 100 % of control
T/C (dose: 12.5 mg/kg/injection, schedule: Q04DX003 (ip), vehicle: saline): 109 % of control
T/C [16]: 160 % of control
T/C (dose: 25.0 mg/kg/injection, schedule: Q04DX003 (ip), vehicle: saline): 113 % of control
T/C (dose: 33.0 mg/kg/injection, schedule: Q04DX003 (ip), vehicle: saline): 113 % of control
T/C [10]: 90 % of control
T/C (dose: 50.0 mg/kg/injection, schedule: Q04DX003 (ip), vehicle: saline): 113 % of control

Cn1c([N+](=O)[O-])cnc1/C=[N+](\[O-])C1CCCCC1
T/C [10]: 100 % of control
T/C [11]: 100 % of control
T/C [12]: 102 % of control

NC(CC(=O)NO)C(=O)O (stereo not given)
T/C [12]: 110 % of control
T/C (dose: 400.0 mg/kg/injection, schedule: Q01DX009 (ip), vehicle: saline): 120 % of control

CCOP(=O)(OCC)Oc1c(OC)cc(C2OCCO2)cc1OC
T/C [10]: 103 % of control
T/C [11]: 103 % of control
T/C [12]: 117 % of control

c1cnc2c(OCCOCCOCCOCCOc3cccc4cccnc34)cccc2c1
T/C [4]: 90 % of control
T/C [5]: 90 % of control
T/C [6]: 98 % of control

[N-]=[N+]=CC(=O)C1(c2ccccc2)OC1c1ccc([N+](=O)[O-])cc1 (stereo not given)
T/C (dose: 12.5 mg/kg/injection, schedule: Q01DX001 (ip), vehicle: saline with Tween-80): 94 % of control
T/C (dose: 25.0 mg/kg/injection, schedule: Q01DX001 (ip), vehicle: saline with Tween-80): 93 % of control
T/C (dose: 50.0 mg/kg/injection, schedule: Q01DX001 (ip), vehicle: saline with Tween-80): 86 % of control and 95 % of control

N=C(N)c1ccc2cc(/C=C/c3cc4ccc(C(=N)N)cc4o3)oc2c1
T/C (dose: 100.0 mg/kg/injection, schedule: Q04DX003 (ip), vehicle: suspension in saline): 112 % of control
T/C (dose: 200.0 mg/kg/injection, schedule: Q04DX003 (ip), vehicle: suspension in saline): 120 % of control

CCCCCCC(/C=C/c1ccc(N(C)C)cc1)=N\O
T/C [8]: 93 % of control
T/C [9]: 93 % of control

N#Cc1c(-c2ccc(Cl)c(Cl)c2)c(-c2ccc(Cl)c(Cl)c2)nn(CCO)c1=O
T/C (dose: 25.0 mg/kg/injection, schedule: Q04DX002 (ip), vehicle: distilled water + Tween-80): 95 % of control
T/C (dose: 50.0 mg/kg/injection, schedule: Q04DX002 (ip), vehicle: distilled water + Tween-80): 93 % of control
T/C (dose: 100.0 mg/kg/injection, schedule: Q04DX002 (ip), vehicle: distilled water + Tween-80): 93 % of control
T/C (dose: 200.0 mg/kg/injection, schedule: Q04DX002 (ip), vehicle: distilled water + Tween-80): 87 % of control

Nc1ccc(N=Nc2ccncc2)c2ccccc12
T/C [4]: 100 % of control
T/C [5]: 100 % of control

O=C1c2ccccc2-c2c1c1ccccc1c(=O)n2Cc1ccco1
T/C (dose: 0.75 mg/kg/injection, schedule: Q01DX005 (ip), vehicle: saline with Tween-80): 100 % of control
T/C (dose: 1.5 mg/kg/injection, schedule: Q01DX005 (ip), vehicle: saline with Tween-80): 100 % of control
T/C (dose: 3.0 mg/kg/injection, schedule: Q01DX005 (ip), vehicle: saline with Tween-80): 103 % of control

Cc1c(C)[n+](=O)c2ccc(C=O)cc2n1[O-]
T/C (dose: 50.0 mg/kg/injection, schedule: Q01DX009 (ip), vehicle: suspension in saline): 97 % of control
T/C (dose: 100.0 mg/kg/injection, schedule: Q01DX009 (ip), vehicle: suspension in saline): 94 % of control
T/C (dose: 200.0 mg/kg/injection, schedule: Q01DX009 (ip), vehicle: suspension in saline): 94 % of control

CN(CCO)C1CC(C)(C)N(O)C(C)(C)C1
T/C [14]: 96 % of control
T/C [15]: 100 % of control
T/C (dose: 240.0 mg/kg/injection, schedule: Q01DX005 (ip), vehicle: saline): 100 % of control

CCOC(=O)c1[nH]c(C)nc1/N=N/N(C)C
T/C [16]: 119 % of control
T/C [10]: 116 % of control
T/C [12]: 116 % of control

Cc1noc2c1NC(=O)OCC2
T/C [1]: 101 % of control
T/C [2]: 95 % of control
T/C [3]: 97 % of control

CC(=O)O[C@H]1[C@@H]2c3c(ccc4c(=O)cc(-c5ccccc5)oc34)O[C@@H]2OC1(C)C
T/C (dose: 0.98 mg/kg/injection, schedule: Q01DX005 (ip), vehicle: Klucel (hydroxypropylcellulose) (HPC)): 100 % of control
T/C (dose: 1.95 mg/kg/injection, schedule: Q01DX005 (ip), vehicle: Klucel (hydroxypropylcellulose) (HPC)): 98 % of control
T/C (dose: 3.9 mg/kg/injection, schedule: Q01DX005 (ip), vehicle: Klucel (hydroxypropylcellulose) (HPC)): 86 % of control

NC(=O)c1ncn2c(=O)n(CCCl)nnc12
T/C (dose: 6.25 mg/kg/injection, schedule: Q01DX005 (ip), vehicle: saline): 181 % of control and 236 % of control
T/C (dose: 6.7 mg/kg/injection, schedule: Q01DX005 (ip), vehicle: saline): 254 % of control
T/C (dose: 10.0 mg/kg/injection, schedule: Q01DX005 (ip), vehicle: saline): 565 % of control and 566 % of control
T/C (dose: 12.5 mg/kg/injection, schedule: Q01DX005 (ip), vehicle: saline): 272 % of control and 275 % of control and 297 % of control
T/C [13]: 566 % of control and 606 % of control
T/C (dose: 22.0 mg/kg/injection, schedule: Q01DX005 (ip), vehicle: saline): 393 % of control and 566 % of control
T/C (dose: 25.0 mg/kg/injection, schedule: Q01DX005 (ip), vehicle: saline): 272 % of control and 297 % of control and 306 % of control
T/C (dose: 33.0 mg/kg/injection, schedule: Q01DX005 (ip), vehicle: saline): 566 % of control and 606 % of control
T/C [1]: 100 % of control

CC(=O)/C(C(=N)c1nc(C)c(C(C)=O)c(C(N)=O)n1)=C(\C)O
T/C [1]: 103 % of control
T/C [2]: 100 % of control
